Measurements reported in patent US10195185B2, “3-(1H-imidazo[4,5-C]pyridin-2-yl)-1H-pyrazolo[4,3-B]pyridines and therapeutic uses thereof” (Samumed, LLC, priority 2015, dated 2019).

Experiments:
Assay type in all cases: cell-based
SW480 colon cancer cells = assay: Cell viability assay (CellTiter-Blue), four days; settings: Homo sapiens, 96 h; for EC50: CellTiter-Blue cell viability; for inhibition at 10 µM: read-out: percent inhibition at 10 μM (given for EC50 of >10 μM)
Procedure, shortened: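 Four-day viability readout in SW480 cells: compound at 0.0045–10 μM (1:3 series), DMSO controls in eight replicates, CellTiter-Blue fluorescence after ~3 h. Values are regression-derived EC50s, or percent inhibition at 10 μM when EC50 exceeds 10 μM.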

[1] = system: IL-6 in human monocyte cell line (THP-1 cells); assay: IL-6 inhibition in LPS-stimulated THP-1 cells (HTRF); settings: IL-6 in LPS-stimulated THP-1 cells; for EC50: HTRF; for inhibition at 10 µM: read-out: percent inhibition in brackets beside EC50 >10 μM
Procedure, shortened: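 Readout is the 665/620 nm HTRF ratio for secreted IL-6, normalized to DMSO wells, with EC50 from a variable-slope four-parameter fit, or % inhibition at 10 μM when above 10 μM. Cells (1% FBS, 24 h beforehand) got compound for 2 h, then LPS 500 ng/mL for 22 h at 37° C; top dose 10 μM, 0.1% DMSO.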

[2] = system: Wnt activity (Wnt-responsive human Sp5 promoter, TCF/LEF binding sites) in SW480 colon carcinoma cells; assay: Wnt activity screening assay: Sp5-Luc luciferase reporter gene in SW480 cells; settings: for EC50: 10-point dose-response from 10 μM, incubated overnight; for inhibition at 10 µM: given for EC50 of >10 μM, read-out: percent inhibition at 10 μM
Procedure, shortened: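 SW480 cells stably transduced with an Sp5 promoter (eight TCF/LEF sites)–firefly luciferase lentiviral reporter, plated at 4,000 cells/well in 1% FBS medium with compounds (10-point 1:3 series from 10 μM, 0.1% DMSO) overnight at 37 °C. BrightGlo luminescence normalised to DMSO; EC50 by four-parameter fit, else % inhibition at 10 μM.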

Row | Compound | EC50 (SW480 colon cancer cells) | EC50 [1] | EC50 [2] | inhibition at 10 µM [1] | inhibition at 10 µM (SW480 colon cancer cells) | inhibition at 10 µM [2]
1 | Fc1cccc(-c2nccc3[nH]c(-c4n[nH]c5ccc(-c6cncc(OCCN7CCCC7)c6)nc45)nc23)c1 [Compound 514, 3-(4-(3-Fluorophenyl)-1H-imidazo[4,5-c]pyridin-2-yl)-5-(5-(2-(pyrrolidin-1-yl)ethoxy)pyridin-3-yl)-1H-pyrazolo[4,3-b]pyridine] | 3.43 µM | > 10 µM | 2.45 µM | 47.8% | – | –
2 | Fc1cccc(-c2nccc3[nH]c(-c4n[nH]c5ccc(C6=CCNCC6)nc45)nc23)c1 [Compound 506, 3-(4-(3-Fluorophenyl)-1H-imidazo[4,5-c]pyridin-2-yl)-5-(1,2,3,6-tetrahydropyridin-4-yl)-1H-pyrazolo[4,3-b]pyridine] | > 10 µM | > 10 µM | > 10 µM | 34.6% | 0% | 17.6%
3 | O=C(CC1CCNCC1)Nc1cncc(-c2ccc3[nH]nc(-c4nc5c(-c6ccccn6)nccc5[nH]4)c3n2)c1 [Compound 593, 2-(Piperidin-4-yl)-N-(5-(3-(4-(pyri-2-yl)-1H-imidazo[4,5-c]pyridin-2-yl)-1H-pyrazolo[4,3-b]pyridin-5-yl)pyridin-3-yl)acetamide] | > 10 µM | > 10 µM | > 10 µM | 32.5% | 9.1% | 31.4%
4 | CN(C)CCNc1cc(F)cc(-c2nccc3[nH]c(-c4n[nH]c5ccc(-c6ccccn6)nc45)nc23)c1 [Compound 476, N^1-(3-Fluoro-5-(2-(5-(pyridin-2-yl)-1H-pyrazolo[4,3-b]pyridin-3-yl)-1H-imidazo[4,5-c]pyridin-4-yl)phenyl)-N^2,N^2-dimethylethane-1,2-diamine] | 6.25 µM | > 10 µM | 8.65 µM | 35.8% | – | –
5 | Fc1cccc(-c2nccc3[nH]c(-c4n[nH]c5ccc(-c6ccncc6)nc45)nc23)c1 [Compound 18, 3-(4-(3-Fluorophenyl)-1H-imidazo[4,5-c]pyridin-2-yl)-5-(pyridin-4-yl)-1H-pyrazolo[4,3-b]pyridine] | 2.78 µM | > 10 µM | 0.843 µM | 4.6% | – | –

Now those with a lower EC50 (SW480 colon cancer cells), led by results:

Row | EC50 (SW480 colon cancer cells) | EC50 [1] | EC50 [2] | Compound | inhibition at 10 µM [1] | inhibition at 10 µM (SW480 colon cancer cells) | inhibition at 10 µM [2]
6 | 2.2 µM | > 10 µM | 0.115 µM | Cn1cc(-c2ccc3[nH]nc(-c4nc5c(-c6cccc(F)c6)nccc5[nH]4)c3n2)cn1 [Compound 508, 3-(4-(3-Fluorophenyl)-1H-imidazo[4,5-c]pyridin-2-yl)-5-(1-methyl-1H-pyrazol-4-yl)-1H-pyrazolo[4,3-b]pyridine] | 0% | – | –
7 | 0.156 µM | 0.142 µM | 0.05 µM | Cc1ccc(-c2nccc3[nH]c(-c4n[nH]c5ccc(-c6cncc(N)c6)nc45)nc23)s1 [Compound 395, 5-(3-(4-(5-Methylthiophen-2-yl)-1H-imidazo[4,5-c]pyridin-2-yl)-1H-pyrazolo[4,3-b]pyridin-5-yl)pyridin-3-amine] | – | – | –
8 | 0.455 µM | 3.43 µM | 0.803 µM | CN(C)c1cncc(-c2ccc3[nH]nc(-c4nc5c(-c6cccs6)nccc5[nH]4)c3n2)c1 [Compound 343, N,N-Dimethyl-5-(3-(4-(thiophen-2-yl)-1H-imidazo[4,5-c]pyridin-2-yl)-1H-pyrazolo[4,3-b]pyridin-5-yl)pyridin-3-amine] | – | – | –
9 | 1.27 µM | > 10 µM | 8.02 µM | CN(C)Cc1cncc(-c2ccc3[nH]nc(-c4nc5c(-c6cccs6)nccc5[nH]4)c3n2)c1 [Compound 349, N,N-dimethyl-1-(5-(3-(4-(thiophen-2-yl)-1H-imidazo[4,5-c]pyridin-2-yl)-1H-pyrazolo[4,3-b]pyridin-5-yl)pyridin-3-yl)methanamine] | 0% | – | –
